Reference: ChEMBL document CHEMBL3232711, “Novel inhibitors of the MDM2-p53 interaction featuring hydrogen bond acceptors as carboxylic acid isosteres” (J Med Chem, 2014)
Blank lines part the entries; values can stand above or below the compound they belong to.

Columns and labels:
[1] = Clearance in mouse at 0.5 mg/kg, iv; type: ADME, organism-based; set-up: dose 0.5 mg/kg, route intravenous; conditions: in vivo
[2] = Volume of distribution at steady state in mouse at 0.5 mg/kg, iv; type: ADME, organism-based; set-up: dose 0.5 mg/kg, route intravenous; conditions: in vivo, read-out: Vdss
[3] = Half life in mouse at 0.5 mg/kg, iv; type: ADME, organism-based; set-up: dose 0.5 mg/kg, route intravenous; conditions: in vivo
[4] = Volume of distribution at steady state in rat at 0.5 mg/kg, iv; type: ADME, organism-based; set-up: dose 0.5 mg/kg, route intravenous; conditions: in vivo, read-out: Vdss
[5] = Intrinsic clearance in human hepatocytes measured per 10^6 cells; type: ADME, cell-based, Hepatocyte; conditions: read-out: CLH
[6] = Oral bioavailability in mouse at 5 mg/kg; type: ADME, organism-based; conditions: in vivo
[7] = Clearance in rat at 0.5 mg/kg, iv; type: ADME, organism-based; set-up: dose 0.5 mg/kg, route intravenous; conditions: in vivo
[8] = Half life in rat at 0.5 mg/kg, iv; type: ADME, organism-based; set-up: dose 0.5 mg/kg, route intravenous; conditions: in vivo
[9] = Drug metabolism in dog hepatocytes assessed as oxidative metabolite formation at 10 uM after 2 hrs by LC-MS/MS analysis; type: ADME, cell-based, Canis lupus familiaris, Hepatocyte
[10] = Drug metabolism in mouse hepatocytes assessed as 2-(2-(((3R,5R,6S)-1-((S)-2-(tert-butylsulfonyl)-1-cyclopropylethyl)-6-(4-chloro-3-fluorophenyl)-5-(3-chlorophenyl)-3-methyl-2-oxopiperidin-3-yl)methyl)thiazol-5-yl)acetic acid formation at 10 uM after 2 hrs by LC-MS/MS analysis; type: ADME, cell-based, Hepatocyte
[11] = Drug metabolism in human hepatocytes assessed as 2-(2-(((3R,5R,6S)-1-((S)-2-(tert-butylsulfonyl)-1-cyclopropylethyl)-6-(4-chloro-3-fluorophenyl)-5-(3-chlorophenyl)-3-methyl-2-oxopiperidin-3-yl)methyl)thiazol-5-yl)acetic acid metabolite formation at 10 uM after 2 hrs by LC-MS/MS analysis; type: ADME, cell-based, Hepatocyte
[12] = Drug metabolism in rat hepatocytes assessed as 2-(2-(((3R,5R,6S)-1-((S)-2-(tert-butylsulfonyl)-1-cyclopropylethyl)-6-(4-chloro-3-fluorophenyl)-5-(3-chlorophenyl)-3-methyl-2-oxopiperidin-3-yl)methyl)thiazol-5-yl)acetic acid formation at 10 uM after 2 hrs by LC-MS/MS analysis; type: ADME, cell-based, Hepatocyte
[13] = Drug metabolism in mouse hepatocytes assessed as oxidative metabolite formation at 10 uM after 2 hrs by LC-MS/MS analysis; type: ADME, cell-based, Hepatocyte
[14] = Drug metabolism in monkey hepatocytes assessed as 2-(2-(((3R,5R,6S)-1-((S)-2-(tert-butylsulfonyl)-1-cyclopropylethyl)-6-(4-chloro-3-fluorophenyl)-5-(3-chlorophenyl)-3-methyl-2-oxopiperidin-3-yl)methyl)thiazol-5-yl)acetic acid formation at 10 uM after 2 hrs by LC-MS/MS analysis; type: ADME, cell-based, Macaca mulatta, Hepatocyte; conditions: rhesus monkey
[15] = Drug metabolism in human hepatocytes assessed as oxidative metabolite formation at 10 uM after 2 hrs by LC-MS/MS analysis; type: ADME, cell-based, Hepatocyte
[16] = Drug metabolism in monkey hepatocytes assessed as oxidative metabolite formation at 10 uM after 2 hrs by LC-MS/MS analysis; type: ADME, cell-based, Macaca mulatta, Hepatocyte; conditions: rhesus monkey
[17] = Drug metabolism in rat hepatocytes assessed as oxidative metabolite formation at 10 uM after 2 hrs by LC-MS/MS analysis; type: ADME, cell-based, Hepatocyte
[18] = Drug metabolism in dog hepatocytes assessed as 2-(2-(((3R,5R,6S)-1-((S)-2-(tert-butylsulfonyl)-1-cyclopropylethyl)-6-(4-chloro-3-fluorophenyl)-5-(3-chlorophenyl)-3-methyl-2-oxopiperidin-3-yl)methyl)thiazol-5-yl)acetic acid formation at 10 uM after 2 hrs by LC-MS/MS analysis; type: ADME, cell-based, Canis lupus familiaris, Hepatocyte

Compound: CC(C)(C)S(=O)(=O)C[C@H](C1CC1)N1C(=O)[C@@](C)(Cc2nc(CC(=O)O)cs2)C[C@H](c2cccc(Cl)c2)[C@H]1c1ccc(Cl)cc1
hepatocyte CLint [5]: 5.3 µL/min/1e6 cells

Compound: CC(C)(C)S(=O)(=O)C[C@H](C1CC1)N1C(=O)[C@@](C)(Cc2ccc(CC(=O)O)cn2)C[C@H](c2cccc(Cl)c2)[C@H]1c1ccc(Cl)cc1
hepatocyte CLint [5]: 3.4 µL/min/1e6 cells

Compound: CC(C)(C(=O)O)c1ccc(C[C@@]2(C)C[C@H](c3cccc(Cl)c3)[C@@H](c3ccc(Cl)cc3)N([C@H](CS(=O)(=O)C(C)(C)C)C3CC3)C2=O)nc1
hepatocyte CLint [5]: < 0.1 µL/min/1e6 cells

Compound: Cc1nc(C[C@@]2(C)C[C@H](c3cccc(Cl)c3)[C@@H](c3ccc(Cl)cc3)N([C@H](CS(=O)(=O)C(C)(C)C)C3CC3)C2=O)ccc1C(=O)O
hepatocyte CLint [5]: 26 µL/min/1e6 cells

Compound: CC(C)(C)S(=O)(=O)C[C@H](C1CC1)N1C(=O)[C@@](C)(Cc2ncc(C(=O)O)cn2)C[C@H](c2cccc(Cl)c2)[C@H]1c1ccc(Cl)cc1
hepatocyte CLint [5]: 10 µL/min/1e6 cells

Compound: CC(C)(C)S(=O)(=O)C[C@H](C1CC1)N1C(=O)[C@@](C)(Cn2cc(C(=O)O)cn2)C[C@H](c2cccc(Cl)c2)[C@H]1c1ccc(Cl)cc1
hepatocyte CLint [5]: 2.8 µL/min/1e6 cells

Compound: CC(C)(C)S(=O)(=O)C[C@H](C1CC1)N1C(=O)[C@@](C)(Cc2nc(C(=O)O)cs2)C[C@H](c2cccc(Cl)c2)[C@H]1c1ccc(Cl)cc1
hepatocyte CLint [5]: 1.8 µL/min/1e6 cells

Compound: CC(C)(C)S(=O)(=O)C[C@H](C1CC1)N1C(=O)[C@@](C)(Cc2ncc(C(=O)O)s2)C[C@H](c2cccc(Cl)c2)[C@H]1c1ccc(Cl)cc1
clearance [1]: 5.83 mL/min/kg
Vd [2]: 0.67 L/kg
half-life [3]: 198 min
Vd [4]: 0.18 L/kg
hepatocyte CLint [5]: 8.7 µL/min/1e6 cells
bioavailability [6]: 18%
clearance [7]: 3.17 mL/min/kg
half-life [8]: 216 min

Compound: CC(C)(C)S(=O)(=O)C[C@H](C1CC1)N1C(=O)[C@@](C)(Cc2ncc(C(=O)CO)s2)C[C@H](c2cccc(Cl)c2)[C@H]1c1ccc(Cl)cc1
hepatocyte CLint [5]: 47 µL/min/1e6 cells

Compound: CC(C)(C)S(=O)(=O)C[C@H](C1CC1)N1C(=O)[C@@](C)(Cc2ncc(CC(=O)O)s2)C[C@H](c2cccc(Cl)c2)[C@H]1c1ccc(Cl)cc1
clearance [1]: 7.17 mL/min/kg
Vd [2]: 0.72 L/kg
half-life [3]: 121 min
Vd [4]: 0.74 L/kg
hepatocyte CLint [5]: 5.8 µL/min/1e6 cells
bioavailability [6]: 10%
clearance [7]: 22.8 mL/min/kg
half-life [8]: 109 min

Compound: CC(C)(C(=O)O)c1cnc(C[C@@]2(C)C[C@H](c3cccc(Cl)c3)[C@@H](c3ccc(Cl)cc3)N([C@H](CS(=O)(=O)C(C)(C)C)C3CC3)C2=O)s1
hepatocyte CLint [5]: 3.6 µL/min/1e6 cells

Compound: CC(C)(C)S(=O)(=O)C[C@H](C1CC1)N1C(=O)[C@@](C)(Cc2ncc(C3(C(=O)O)CC3)s2)C[C@H](c2cccc(Cl)c2)[C@H]1c1ccc(Cl)cc1
hepatocyte CLint [5]: 7.7 µL/min/1e6 cells

Compound: CC(C)(C)S(=O)(=O)C[C@H](C1CC1)N1C(=O)[C@@](C)(Cc2nnc(CC(=O)O)[nH]2)C[C@H](c2cccc(Cl)c2)[C@H]1c1ccc(Cl)cc1
hepatocyte CLint [5]: 10 µL/min/1e6 cells

Compound: CC(C)(C)S(=O)(=O)C[C@H](C1CC1)N1C(=O)[C@@](C)(Cc2ncc(CC(=O)O)[nH]2)C[C@H](c2cccc(Cl)c2)[C@H]1c1ccc(Cl)cc1
hepatocyte CLint [5]: 5 µL/min/1e6 cells

More lines, now with the values ahead:

clearance [1]: 3.83 mL/min/kg
Vd [2]: 0.57 L/kg
half-life [3]: 168 min
Vd [4]: 0.41 L/kg
hepatocyte CLint [5]: 10 µL/min/1e6 cells
bioavailability [6]: 60%
clearance [7]: 6 mL/min/kg
half-life [8]: 108 min
Compound: CC(C)(C)S(=O)(=O)C[C@H](C1CC1)N1C(=O)[C@@](C)(Cc2ccc(C(=O)O)cn2)C[C@H](c2cccc(Cl)c2)[C@H]1c1ccc(Cl)cc1

clearance [1]: 2.5 mL/min/kg
Drug metabolism [9]: metabolite_detected
Vd [2]: 0.35 L/kg
half-life [3]: 192 min
Drug metabolism [10]: metabolite_notdetected
Drug metabolism [11]: metabolite_notdetected
Vd [4]: 0.27 L/kg
Drug metabolism [12]: metabolite_notdetected
Drug metabolism [13]: metabolite_detected
Drug metabolism [14]: metabolite_notdetected
Drug metabolism [15]: metabolite_detected
hepatocyte CLint [5]: 5.5 µL/min/1e6 cells
Drug metabolism [16]: metabolite_detected
Drug metabolism [17]: metabolite_detected
bioavailability [6]: 56%
clearance [7]: 3.83 mL/min/kg
half-life [8]: 264 min
Drug metabolism [18]: metabolite_notdetected
Compound: CC(C)(C)S(=O)(=O)C[C@H](C1CC1)N1C(=O)[C@@](C)(Cc2ncc(CC(=O)O)s2)C[C@H](c2cccc(Cl)c2)[C@H]1c1ccc(Cl)c(F)c1

hepatocyte CLint [5]: 7.8 µL/min/1e6 cells
Compound: CC(C)(C)S(=O)(=O)C[C@H](C1CC1)N1C(=O)[C@@](C)(Cc2ccc(C(=O)O)cn2)C[C@H](c2cccc(Cl)c2)[C@H]1c1ccc(Cl)c(F)c1

hepatocyte CLint [5]: 5.1 µL/min/1e6 cells
Compound: Cc1cc(C[C@@]2(C)C[C@H](c3cccc(Cl)c3)[C@@H](c3ccc(Cl)cc3)N([C@H](CS(=O)(=O)C(C)(C)C)C3CC3)C2=O)ncc1C(=O)O

hepatocyte CLint [5]: 14 µL/min/1e6 cells
Compound: CC(C)(C)S(=O)(=O)C[C@H](C1CC1)N1C(=O)[C@@](C)(Cc2ncc(C(=O)O)cn2)C[C@H](c2cccc(Cl)c2)[C@H]1c1ccc(Cl)c(F)c1

hepatocyte CLint [5]: 25 µL/min/1e6 cells
Compound: CC(C)(C)S(=O)(=O)C[C@H](C1CC1)N1C(=O)[C@@](C)(Cc2cnc(C(=O)O)cn2)C[C@H](c2cccc(Cl)c2)[C@H]1c1ccc(Cl)cc1

clearance [1]: 2.5 mL/min/kg
Vd [2]: 0.53 L/kg
half-life [3]: 246 min
Vd [4]: 0.41 L/kg
hepatocyte CLint [5]: 10 µL/min/1e6 cells
bioavailability [6]: 36%
clearance [7]: 1.5 mL/min/kg
half-life [8]: 138 min
Compound: CC(C)(C)S(=O)(=O)C[C@H](C1CC1)N1C(=O)[C@@](C)(Cc2ncc(C(=O)O)s2)C[C@H](c2cccc(Cl)c2)[C@H]1c1ccc(Cl)c(F)c1

hepatocyte CLint [5]: 14 µL/min/1e6 cells
Compound: CC(C)(C)S(=O)(=O)C[C@H](C1CC1)N1C(=O)[C@@](C)(Cc2nccs2)C[C@H](c2cccc(Cl)c2)[C@H]1c1ccc(Cl)c(F)c1

hepatocyte CLint [5]: 4.7 µL/min/1e6 cells
Compound: CC(C)(C)S(=O)(=O)C[C@H](C1CC1)N1C(=O)[C@@](C)(Cc2ncc(C(F)(F)C(=O)O)s2)C[C@H](c2cccc(Cl)c2)[C@H]1c1ccc(Cl)c(F)c1

hepatocyte CLint [5]: 4.3 µL/min/1e6 cells
Compound: CC(C)(C)S(=O)(=O)C[C@H](C1CC1)N1C(=O)[C@@](C)(Cc2ncc(CC(=O)O)o2)C[C@H](c2cccc(Cl)c2)[C@H]1c1ccc(Cl)c(F)c1
